Source: paper PMC11157767 (Molecular Cancer, 2024)

System: TRIM24-MET-i cells
Description: The number of unique and shared differentially expressed genes between each comparison are shown in parentheses. A linear regression line is depicted along with Pearson’s correlation coefficient (r) and its associated p-value. […] Common negatively enriched genesets between all three comparisons are in bold. c, Heatmaps showing expression of Hallmark_Myc_Target_v1/2 genes for indicated cells and treatment comparisons (TRIM-MET cells were treated in vitro, TFG-MET cells in vivo). Select leading edge genes from GSEA are labeled.

`CNC(=O)c1ccc(-c2cnc3ncc(Cc4ccc5ncccc5c4)n3n2)cc1F` [Capmatinib] was tested, and the “NES HALLMARK_ADIPOGENESIS” value (GSEA v. DMSO) was -0.9589, the “NES HALLMARK_ALLOGRAFT_REJECTION” value (GSEA v. DMSO) was -1.401 and the “NES HALLMARK_ANDROGEN_RESPONSE” value (GSEA v. DMSO) was -1.889. For the same molecule, the “NES HALLMARK_APICAL_JUNCTION” value (GSEA v. DMSO) was -1.091, the “NES HALLMARK_APICAL_SURFACE” value (GSEA v. DMSO) was 1.792 and the “NES HALLMARK_APOPTOSIS” value (GSEA v. DMSO) was -1.59. The “NES HALLMARK_BILE_ACID_METABOLISM” value (GSEA v. DMSO) was 1.602, the “NES HALLMARK_CHOLESTEROL_HOMEOSTASIS” value (GSEA v. DMSO) was -1.359 and the “NES HALLMARK_COAGULATION” value (GSEA v. DMSO) was -1.635. The “NES HALLMARK_COMPLEMENT” value (GSEA v. DMSO) was -1.904, the “NES HALLMARK_DNA_REPAIR” value (GSEA v. DMSO) was -0.965 and the “NES HALLMARK_E2F_TARGETS” value (GSEA v. DMSO) was -1.195. For the same molecule, the “NES HALLMARK_EPITHELIAL_MESENCHYMAL_TRANSITION” value (GSEA v. DMSO) was -1.076, the “NES HALLMARK_ESTROGEN_RESPONSE_EARLY” value (GSEA v. DMSO) was -1.483 and the “NES HALLMARK_ESTROGEN_RESPONSE_LATE” value (GSEA v. DMSO) was -1.018. For the same molecule, the “NES HALLMARK_FATTY_ACID_METABOLISM” value (GSEA v. DMSO) was 0.99, the “NES HALLMARK_G2M_CHECKPOINT” value (GSEA v. DMSO) was -1.318 and the “NES HALLMARK_GLYCOLYSIS” value (GSEA v. DMSO) was -1.3547. For the same molecule, the “NES HALLMARK_HEDGEHOG_SIGNALING” value (GSEA v. DMSO) was -1.3433, the “NES HALLMARK_HEME_METABOLISM” value (GSEA v. DMSO) was 1.243 and the “NES HALLMARK_HYPOXIA” value (GSEA v. DMSO) was -1.387. For the same molecule, the “NES HALLMARK_IL2_STAT5_SIGNALING” value (GSEA v. DMSO) was -2.015, the “NES HALLMARK_IL6_JAK_STAT3_SIGNALING” value (GSEA v. DMSO) was -0.9282 and the “NES HALLMARK_INFLAMMATORY_RESPONSE” value (GSEA v. DMSO) was -1.659. The “NES HALLMARK_INTERFERON_ALPHA_RESPONSE” value (GSEA v. DMSO) was 1.273, the “NES HALLMARK_INTERFERON_GAMMA_RESPONSE” value (GSEA v. DMSO) was -0.9862 and the “NES HALLMARK_KRAS_SIGNALING_DN” value (GSEA v. DMSO) was 1.126. For the same molecule, the “NES HALLMARK_KRAS_SIGNALING_UP” value (GSEA v. DMSO) was -1.881, the “NES HALLMARK_MITOTIC_SPINDLE” value (GSEA v. DMSO) was -1.303 and the “NES HALLMARK_MTORC1_SIGNALING” value (GSEA v. DMSO) was -2.1602. The “NES HALLMARK_MYC_TARGETS_V1” value (GSEA v. DMSO) was -2.499, the “NES HALLMARK_MYC_TARGETS_V2” value (GSEA v. DMSO) was -2.697 and the “NES HALLMARK_MYOGENESIS” value (GSEA v. DMSO) was -0.8301. The “NES HALLMARK_NOTCH_SIGNALING” value (GSEA v. DMSO) was -1.186, the “NES HALLMARK_OXIDATIVE_PHOSPHORYLATION” value (GSEA v. DMSO) was -1.201 and the “NES HALLMARK_P53_PATHWAY” value (GSEA v. DMSO) was -0.9833. For the same molecule, the “NES HALLMARK_PANCREAS_BETA_CELLS” value (GSEA v. DMSO) was 1.071, the “NES HALLMARK_PEROXISOME” value (GSEA v. DMSO) was 1.028 and the “NES HALLMARK_PI3K_AKT_MTOR_SIGNALING” value (GSEA v. DMSO) was -1.164. For the same molecule, the “NES HALLMARK_PROTEIN_SECRETION” value (GSEA v. DMSO) was -1.171, the “NES HALLMARK_REACTIVE_OXYGEN_SPECIES_PATHWAY” value (GSEA v. DMSO) was -1.072 and the “NES HALLMARK_SPERMATOGENESIS” value (GSEA v. DMSO) was 0.7417. The “NES HALLMARK_TGF_BETA_SIGNALING” value (GSEA v. DMSO) was -1.868, the “NES HALLMARK_TNFA_SIGNALING_VIA_NFKB” value (GSEA v. DMSO) was -2.324 and the “NES HALLMARK_UV_RESPONSE_DN” value (GSEA v. DMSO) was -1.271. For the same molecule, the “NES HALLMARK_UV_RESPONSE_UP” value (GSEA v. DMSO) was -1.537, the “NES HALLMARK_WNT_BETA_CATENIN_SIGNALING” value (GSEA v. DMSO) was -1.2104 and the “NES HALLMARK_XENOBIOTIC_METABOLISM” value (GSEA v. DMSO) was 0.8191. The “NES KRIGE_RESPONSE_TO_TOSEDOSTAT_6HR_DN” value (GSEA v. DMSO) was -2.5861, the “NES KRIGE_RESPONSE_TO_TOSEDOSTAT_24HR_DN” value (GSEA v. DMSO) was -2.743 and the “NES LEE_BMP2_TARGETS_DN” value (GSEA v. DMSO) was -2.881. For the same molecule, the “NES PUJANA_CHEK2_PCC_NETWORK” value (GSEA v. DMSO) was -2.452, the “NES WEI_MYCN_TARGETS_WITH_E_BOX” value (GSEA v. DMSO) was -2.939 and the “ES GOBP_NCRNA_METABOLIC_PROCESS” value (GSEA, v. DMSO) was -0.717. The “ES GOBP_NCRNA_PROCESSING” value (GSEA, v. DMSO) was -0.737, the “ES GOBP_RIBONUCLEOPROTEIN_COMPLEX_BIOGENESIS” value (GSEA, v. DMSO) was -0.7048 and the “ES GOBP_RIBOSOME_BIOGENESIS” value (GSEA, v. DMSO) was -0.7793. The “ES GOBP_RRNA_METABOLIC_PROCESS” value (GSEA, v. DMSO) was -0.7679, the “ES GOCC_MITOCHONDRIAL_ENVELOPE” value (GSEA, v. DMSO) was -0.4986 and the “ES GOCC_NUCLEOLUS” value (GSEA, v. DMSO) was -0.546. The “ES GOCC_ORGANELLE_INNER_MEMBRANE” value (GSEA, v. DMSO) was -0.5385, the “ES GOCC_PRERIBOSOME” value (GSEA, v. DMSO) was -0.8527 and the “ES GOCC_RIBONUCLEOPROTEIN_COMPLEX” value (GSEA, v. DMSO) was -0.5996. For the same molecule, the “ES GOMF_CATALYTIC_ACTIVITY_ACTING_ON_A_TRNA” value (GSEA, v. DMSO) was -0.6843, the “ES GOMF_CATALYTIC_ACTIVITY_ACTING_ON_RNA” value (GSEA, v. DMSO) was -0.6193 and the “ES GOMF_RNA_HELICASE_ACTIVITY” value (GSEA, v. DMSO) was -0.6953. For the same molecule, the “ES GOMF_RRNA_BINDING” value (GSEA, v. DMSO) was -0.7411, the “ES GOMF_STRUCTURAL_CONSTITUENT_OF_RIBOSOME” value (GSEA, v. DMSO) was -0.6124 and the “NES GOBP_NCRNA_METABOLIC_PROCESS” value (GSEA, v. DMSO) was -2.6866. The “NES GOBP_NCRNA_PROCESSING” value (GSEA, v. DMSO) was -2.741, the “NES GOBP_RIBONUCLEOPROTEIN_COMPLEX_BIOGENESIS” value (GSEA, v. DMSO) was -2.64 and the “NES GOBP_RIBOSOME_BIOGENESIS” value (GSEA, v. DMSO) was -2.85. The “NES GOBP_RRNA_METABOLIC_PROCESS” value (GSEA, v. DMSO) was -2.741, the “NES GOCC_MITOCHONDRIAL_ENVELOPE” value (GSEA, v. DMSO) was -1.908 and the “NES GOCC_NUCLEOLUS” value (GSEA, v. DMSO) was -2.1002. The “NES GOCC_ORGANELLE_INNER_MEMBRANE” value (GSEA, v. DMSO) was -2.039, the “NES GOCC_PRERIBOSOME” value (GSEA, v. DMSO) was -2.662 and the “NES GOCC_RIBONUCLEOPROTEIN_COMPLEX” value (GSEA, v. DMSO) was -2.294. The “NES GOMF_CATALYTIC_ACTIVITY_ACTING_ON_A_TRNA” value (GSEA, v. DMSO) was -2.236, the “NES GOMF_CATALYTIC_ACTIVITY_ACTING_ON_RNA” value (GSEA, v. DMSO) was -2.299 and the “NES GOMF_RNA_HELICASE_ACTIVITY” value (GSEA, v. DMSO) was -2.194. The “NES GOMF_RRNA_BINDING” value (GSEA, v. DMSO) was -2.258 and the “NES GOMF_STRUCTURAL_CONSTITUENT_OF_RIBOSOME” value (GSEA, v. DMSO) was -2.138.
